Results from DBAASP.
≈ marks a conversion by molar mass, not a printed value. Where “and” joins values, the source holds several entries; their conditions need not be identical. Identical values can stand only once. One block for each compound: values may come before it.

Experiments:
Assay in all cases: ≥ marks a high value that may be exact or a test limit, other limits are often not marked, values filed in µg/mL are converted to µM
[1] = system: Agrobacterium tumefaciens GV3101
[2] = system: Methylobacterium sp.
[3] = system: Sinorhizobium meliloti USDA 1002
[4] = system: Xanthomonas citri
[5] = system: Candida albicans ATCC 90028
[6] = system: Candida glabrata ATCC 90030
[7] = system: Candida krusei ATCC 6258
[8] = system: Enterobacter cloacae ATCC 13047
[9] = system: Enterococcus faecalis ATCC 4028
[10] = system: Escherichia coli ATCC 25922
[11] = system: Pseudomonas aeruginosa ATCC 27853
[12] = system: Staphylococcus aureus ATCC 29213
[13] = system: Staphylococcus epidermidis ATCC 12228
[14] = system: Aerococcus viridans
[15] = system: Bacillus megaterium
[16] = system: Candida albicans
[17] = system: Clostridium perfringens
[18] = system: Enterobacter cloacae
[19] = system: Escherichia coli B
[20] = system: Klebsiella pneumoniae
[21] = system: Listeria monocytogenes
[22] = system: Pseudomonas aeruginosa
[23] = system: Saccharomyces cerevisiae
[24] = system: Salmonella enterica subsp. enterica serovar Enteritidis
[25] = system: Salmonella typhimurium
[26] = system: Staphylococcus aureus
[27] = system: Staphylococcus haemolyticus
[28] = system: Streptococcus pneumoniae
[29] = system: Vibrio cholerae
[30] = system: Escherichia coli
[31] = system: Pseudomonas aeruginosa 1
[32] = system: Pseudomonas aeruginosa 2
[33] = system: Staphylococcus aureus ATCC 25923
[34] = system: Acinetobacter baumannii
[35] = system: Escherichia coli K88
[36] = system: Escherichia coli K99
[37] = system: Escherichia coli UB1005
[38] = system: Pseudomonas aeruginosa CICC 21625
[39] = system: Pseudomonas aeruginosa CICC 21630
[40] = system: Pseudomonas aeruginosa PAO1
[41] = system: Salmonella enterica subsp. enterica serovar Pullorum C79-13
[42] = system: Salmonella enterica subsp. enterica serovar Typhimurium ATCC 14028
[43] = system: Salmonella enterica subsp. enterica serovar Typhimurium C77-31
[44] = system: Candida albicans ATCC 14053
[45] = system: Escherichia coli ATCC 11775
[46] = system: Micrococcus luteus ATCC 49732
[47] = system: Staphylococcus aureus ATCC 12600

MIC [5]: 4.7 µM (≈ 9.69 µg/mL) | MIC [6]: 4.7 µM (≈ 9.69 µg/mL) | MIC [7]: 4.7 µM (≈ 9.69 µg/mL) | MIC [8]: 4.7 µM (≈ 9.69 µg/mL) | MIC [9]: 1.2 µM (≈ 2.47 µg/mL) | MIC [10]: 1.2 µM (≈ 2.47 µg/mL) | MIC [11]: 2.3 µM (≈ 4.74 µg/mL) | MIC [12]: 2.3 µM (≈ 4.74 µg/mL) | MIC [13]: 2.3 µM (≈ 4.74 µg/mL)
Structure (SMILES): CC[C@H](C)[C@H](NC(=O)[C@H](CC(C)C)NC(=O)[C@H](CCCCN)NC(=O)[C@H](CCCCN)NC(=O)[C@@H](NC(=O)[C@H](CC(C)C)NC(=O)[C@H](CCCCN)NC(=O)[C@@H]1CCCN1C(=O)[C@@H](NC(=O)[C@H](CC(C)C)NC(=O)[C@H](CCCCN)NC(=O)[C@H](Cc1ccccc1)NC(=O)[C@@H](N)Cc1ccccc1)[C@@H](C)CC)C(C)C)C(=O)N[C@@H](CCCCN)C(=O)N[C@@H](C)C(=O)N[C@@H](Cc1ccccc1)C(=O)N[C@@H](CCCCN)C(N)=O [FFKLIPKLVKKLIKAFK]

MIC [10]: 0.575 µM (≈ 1.25 µg/mL) | MIC [30]: 0.405 µM (≈ 0.88 µg/mL) | MIC [31]: 1.15 µM (≈ 2.5 µg/mL) | MIC [32]: 4.6 µM (≈ 10 µg/mL) | MIC [11]: 2.3 µM (≈ 5 µg/mL) | MIC [33]: 0.0575 µM (≈ 0.125 µg/mL) | MIC [26]: 0.115 µM and 0.163 µM
Structure (SMILES): CC[C@H](C)[C@H](NC(=O)CN)C(=O)NCC(=O)N[C@@H](C)C(=O)N[C@H](C(=O)N[C@@H](CC(C)C)C(=O)N[C@@H](CCCCN)C(=O)N[C@@H](Cc1c[nH]c2ccccc12)C(=O)N[C@@H](CC(C)C)C(=O)N1CCC[C@H]1C(=O)N[C@@H](C)C(=O)N[C@@H](CC(C)C)C(=O)N[C@H](C(=O)N[C@@H](CCCCN)C(=O)N[C@@H](CCCN=C(N)N)C(=O)N[C@@H](CCCCN)C(=O)N[C@@H](CCCN=C(N)N)C(=O)N[C@@H](CCC(N)=O)C(=O)N[C@@H](CCC(N)=O)C(=O)O)[C@@H](C)CC)C(C)C [GIGAVLKWLPALIKRKRQQ]

MIC [44]: ≥ 36 µM | MIC [45]: 12 µM (≈ 8.27 µg/mL) | MIC [46]: ≥ 36 µM | MIC [47]: 12 µM (≈ 8.27 µg/mL)
Structure (SMILES): CC(C)[C@H](NC(=O)[C@H](C)NC(=O)[C@H](C)NC(=O)CNC(=O)[C@@H]1CCCN1)C(=O)N[C@@H](Cc1ccccc1)C(=O)N[C@@H](CCCCN)C(=O)O [PGAAVFK]

The remaining lines, values behind:

Structure (SMILES): CC[C@H](C)[C@H](NC(=O)[C@H](C)NC(=O)[C@H](CCCCN)NC(=O)[C@@H](NC(=O)[C@H](CC(C)C)NC(=O)[C@H](C)NC(=O)[C@H](CCCCN)NC(=O)[C@H](Cc1ccccc1)NC(=O)[C@@H](NC(=O)[C@H](C)NC(=O)[C@H](CCCCN)NC(=O)CNC(=O)[C@@H](NC(=O)[C@H](CCCCN)NC(=O)[C@@H](NC(=O)[C@@H](NC(=O)[C@H](Cc1ccccc1)NC(=O)[C@H](CCCCN)NC(=O)[C@H](CC(C)C)NC(=O)[C@H](CC(C)C)NC(=O)[C@@H](N)CCCCN)C(C)C)[C@@H](C)O)C(C)C)[C@@H](C)CC)[C@@H](C)CC)C(=O)O [KLLKFVTKVGKAIFKALIKAI]
MIC [1]: 3 µM (≈ 6.99 µg/mL) | MIC [2]: 3 µM (≈ 6.99 µg/mL) | MIC [3]: 3 µM (≈ 6.99 µg/mL) | MIC [4]: 3 µM (≈ 6.99 µg/mL)

Structure (SMILES): CC[C@H](C)[C@H](NC(=O)[C@H](CC(C)C)NC(=O)[C@H](CO)NC(=O)[C@@H](NC(=O)[C@@H](NC(=O)[C@H](CC(C)C)NC(=O)CN)C(C)C)[C@@H](C)O)C(=O)N[C@@H](CCCCN)C(=O)NCC(=O)N[C@@H](C)C(=O)NCC(=O)N[C@@H](CCCCN)C(=O)N[C@@H](CC(C)C)C(=O)N[C@@H](CC(C)C)C(=O)NCC(=O)NCC(=O)N[C@@H](CC(C)C)C(=O)N[C@@H](Cc1ccccc1)C(=O)NCC(=O)N[C@@H](CO)C(=O)N[C@H](C(=O)N[C@H](C(=O)NCC(=O)NCC(=O)N[C@@H](CCC(N)=O)C(=O)N[C@@H](CO)C(=O)O)[C@@H](C)O)C(C)C [GLVTSLIKGAGKLLGGLFGSVTGGQS]
MIC [14]: 3.1 µM (≈ 7.5 µg/mL) | MIC [15]: 25 µM (≈ 60.4 µg/mL) | MIC [16]: 50 µM (≈ 121 µg/mL) | MIC [17]: ≥ 50 µM | MIC [18]: 12.5 µM (≈ 30.2 µg/mL) | MIC [19]: 6.25 µM (≈ 15.1 µg/mL) | MIC [20]: 6.25 µM (≈ 15.1 µg/mL) | MIC [21]: 25 µM (≈ 60.4 µg/mL) | MIC [22]: 3.1 µM (≈ 7.5 µg/mL) | MIC [23]: ≥ 50 µM | MIC [24]: 3.1 µM (≈ 7.5 µg/mL) | MIC [25]: 3.1 µM (≈ 7.5 µg/mL) | MIC [26]: 6.25 µM (≈ 15.1 µg/mL) | MIC [27]: ≥ 50 µM | MIC [28]: 6.25 µM (≈ 15.1 µg/mL) | MIC [29]: 25 µM (≈ 60.4 µg/mL)

Structure (SMILES): CC[C@H](C)[C@H](N)C(=O)N[C@@H](CCCN=C(N)N)C(=O)N1CCC[C@H]1C(=O)N[C@H](C(=O)N[C@H](C(=O)N[C@@H](CCCN=C(N)N)C(=O)N1CCC[C@H]1C(=O)N[C@H](C(=O)N[C@H](C(=O)N[C@@H](CCCN=C(N)N)C(=O)N1CCC[C@H]1C(=O)N[C@H](C(=O)N[C@H](C(=O)N[C@@H](CCCN=C(N)N)C(=O)N1CCC[C@H]1C(=O)N[C@H](C(N)=O)[C@@H](C)CC)[C@@H](C)CC)[C@@H](C)CC)[C@@H](C)CC)[C@@H](C)CC)[C@@H](C)CC)[C@@H](C)CC [IRPIIRPIIRPIIRPI]
MIC [34]: 8 µM (≈ 15.5 µg/mL) | MIC [10]: 16 µM (≈ 31 µg/mL) | MIC [35]: 4 µM (≈ 7.74 µg/mL) | MIC [36]: 8 µM (≈ 15.5 µg/mL) | MIC [37]: 16 µM (≈ 31 µg/mL) | MIC [30]: 16 µM (≈ 31 µg/mL) | MIC [20]: 32 µM (≈ 61.9 µg/mL) | MIC [11]: > 64 µM | MIC [38]: ≥ 64 µM | MIC [39]: ≥ 64 µM | MIC [40]: > 64 µM | MIC [22]: > 64 µM | MIC [41]: 16 µM (≈ 31 µg/mL) | MIC [42]: 16 µM (≈ 31 µg/mL) | MIC [43]: 16 µM (≈ 31 µg/mL)
